Measurements from patent publication US8956445B2, “High stability diionic liquid salts” (Sigma-Aldrich Co., priority 2004, dated 2015).
Like-named read-outs stand apart in the source and are kept apart here.

Columns and labels:
[1] = values taken from reference 31, cited from earlier work
[2] = Method: Thermal stabilities were measured by immobilizing an approximate 0.15-0.20 microns film of the ionic liquid on the inner wall of a fused silica capillary. The capillary was then heated slowly in an oven and a very sensitive flame ionization detector (or mass spectrometer) used to detect any volatilization or decomposition of the ionic liquid. There are several advantages of using this set-up to measure the thermal stabilities of ionic liquids. The thermal stability is measured in the absence of oxygen by purging the capillary with a continuous flow of an inert gas such as helium, hydrogen, or nitrogen. […] Finally, this approach can use mass spectrometry detection to determine the likely volatilization/decomposition products.
[3] = exposed to the atmosphere and heated; cited from earlier work
[4] = Solvation interaction parameters by inverse gas-liquid chromatography (Abraham solvation model); assay type: physicochemical
Method: The preparation of the capillary columns for inverse gas-liquid chromatographic analysis was performed using a previously described procedure.^31 All capillary columns had efficiencies between 2100 to 2500 plates/meter. Characterization of the capillary columns and probe molecule descriptions are listed in supplemental information. Multiple linear regression analysis (MLRA) and statistical calculations were performed using the program Analyse-it (Microsoft, USA).
We have previously reported that the Abraham solvation model, a linear free energy approach that utilizes inverse gas-liquid chromatography to describe the solvation properties of a liquid, can be used to characterize room temperature ionic liquids.^31 Described by equation 1, the model provides the so-called “interaction parameters” (r, s, a, b, l) by using multiple linear regression analysis to fit the retention factor (k, determined chromatographically) to the solute descriptors (R2, π2^H, α2^H, β2^H, log L^16) for a wide variety of probe solute molecules. […] The solvation properties of four dicationic ionic liquids (see Table 4) were evaluated and the interaction parameters compared to those obtained for their traditional monocationic analogues 1-butyl-3-methylimidazolium and 1-butyl-1-methylpyrrolidinium ionic liquids.
Previously we characterized a large number of room temperature ionic liquids in terms of multiple solvation interactions using the solvation parameter model, shown in equation 3.^44 log k=c+rR2+sπ2^H+aα2^H+bβ2^H+l log L^16 [3] This approach utilizes inverse gas-liquid chromatography and allows the use of a large number of probe molecules to deconvolute solute retention in terms of the type and magnitude of individual solvation interactions. The solute descriptors (R2, π2^H, α2^H, β2^H, log L^16) from Equation 3 are obtained from the literature for many probe molecules containing a variety of functional groups.^45 The retention factor is determined chromatographically. The solute descriptors and retention factors are subjected to multiple linear regression analysis to obtain the interaction parameter coefficients (r, s, a, b, l), which ultimately characterize the stationary phase: r is the ability of the diionic liquid containing-stationary phase to interact with π and n electrons of the solute, s is a measure of the dipolarity/polarizability of the diionic liquid containing-stationary phase, a defines the diionic liquid containing-stationary phase hydrogen bond basicity, b is a measure of the hydrogen bond acidity, and/refers to the ability of the diionic liquid containing-stationary phase to separate adjacent members of a homologous series.^46
Test solutes used to determine interaction parameters and solvation thermodynamics were dissolved in dichloromethane. A Hewlett-Packard model 5890 gas chromatograph and a Hewlett-Packard 6890 series integrator were used for all separations. Split injection and flame ionization detection were utilized with injection and detection temperatures of 250° C. Helium was used as the carrier gas with a column inlet pressure of 3.1 psi and flow rate of 1.0 mL/min. Methane was used to determine the dead volume of the column. Multiple linear regression analysis and statistical calculations were performed using the program Analyze-it (Microsoft).

[5] = Surface tension (DuNuoy Tensiometer); assay type: physicochemical; settings: room temperature (23° C.)
[6] = Density (2.0 mL volumetric tube, weighing by difference); assay type: physicochemical; settings: 23° C.
Method: (§1) The densities of the ionic liquids or, more correctly, […] (used synonymously except as indicated otherwise explicitly or by context) was determined at 23° C. by placing 2.0 mL of the ionic liquid in a 2.0 mL volumetric tube and weighing by difference. The melting points of the ionic liquids were determined using a Perkin Elmer Pyris 1 Differential Scanning calorimeter (Boston, Mass.). Typical methods involved using a 10° C./min temperature ramp to determine and identify the first and second order thermal transitions. […] For solid compounds, the melting points were verified using a capillary melting point apparatus. Refractive index measurements were conducted at 23° C. using a Bausch & Lomb Abbe-3L refractometer.

[7] = Refractive index (Abbe-3L refractometer); assay type: physicochemical; settings: 23° C.
Method: as §1

Remark: listed apart in the source
[8] = 0.15-0.20 micron film in fused silica capillary, helium flow, FID, tested only up to 400° C.

Row | SMILES | a (hydrogen bond basicity) ([4]; 40° C.) | b (hydrogen bond acidity) ([4]; 40° C.) | c (interaction parameter table, constant) ([4]; 40° C.) | l (dispersion forces) ([4]; 40° C.) | r (interaction via nonbonding and π-electrons) ([4]; 40° C.) | s (dipolarity/polarizability) ([4]; 40° C.) | a (hydrogen bond basicity) ([4]; 70° C.) | b (hydrogen bond acidity) ([4]; 70° C.) | c (interaction parameter table, constant) ([4]; 70° C.) | l (dispersion forces) ([4]; 70° C.) | r (interaction via nonbonding and π-electrons) ([4]; 70° C.) | s (dipolarity/polarizability) ([4]; 70° C.) | a (hydrogen bond basicity) ([4]; 100° C.) | b (hydrogen bond acidity) ([4]; 100° C.) | Surface Tension [5] [dynes/cm] | Density [6] [g/mL] | thermal stability (volatilization/decomposition temperature) [2] | Refractive Index [7] | Miscibility with Heptane | Miscibility with Water | further results
1 | CCCCn1cc[n+](C)c1.O=S(=O)([N-]S(=O)(=O)C(F)(F)F)C(F)(F)F [BMIM—NTf2, 1-butyl-3-methylimidazolium bis[(trifluoromethylsulfonyl)imide]] |  |  |  |  |  |  |  |  |  |  |  |  |  |  |  |  |  |  |  |  | a (hydrogen bond basicity) ([1]; 40° C.): 2.02; b (hydrogen bond acidity) ([1]; 40° C.): 0.36; c (interaction parameter table, constant) ([1]; 40° C.): −2.87; l (dispersion forces) ([1]; 40° C.): 0.63; r (interaction via nonbonding and π-electrons) ([1]; 40° C.): 0; s (dipolarity/polarizability) ([1]; 40° C.): 1.89; a (hydrogen bond basicity) ([1]; 70° C.): 1.75; b (hydrogen bond acidity) ([1]; 70° C.): 0.38; c (interaction parameter table, constant) ([1]; 70° C.): −3.03; l (dispersion forces) ([1]; 70° C.): 0.56; r (interaction via nonbonding and π-electrons) ([1]; 70° C.): 0; s (dipolarity/polarizability) ([1]; 70° C.): 1.67; a (hydrogen bond basicity) ([1]; 100° C.): 1.55; b (hydrogen bond acidity) ([1]; 100° C.): 0.24; c (interaction parameter table, constant) ([1]; 100° C.): −3.13; l (dispersion forces) ([1]; 100° C.): 0.49; r (interaction via nonbonding and π-electrons) ([1]; 100° C.): 0; s (dipolarity/polarizability) ([1]; 100° C.): 1.60; thermal stability (volatilization/decomposition temperature) [2, 8]: 185 °C
2 | CCCCn1cc[n+](C)c1.[Cl-] [BMIM-Cl, 1-butyl-3-methylimidazolium chloride, reference compound] |  |  |  |  |  |  |  |  |  |  |  |  |  |  |  |  |  |  |  |  | temperature of obvious signs of decomposition [3]: ≥ 150 °C; thermal stability (volatilization/decomposition temperature) [2, 8]: 145 °C
3 | C[N+]1(CCCCCCCCC[N+]2(C)CCCC2)CCCC1.O=S(=O)([N-]S(=O)(=O)C(F)(F)F)C(F)(F)F.O=S(=O)([N-]S(=O)(=O)C(F)(F)F)C(F)(F)F [C9(mpy)2-NTf2, 1,9-di(methylpyrrolidinium)nonane di-bis[(trifluoromethyl)sulfonyl]imidate] | 1.98 | 0.32 | −2.83 | 0.62 | 0.27 | 1.71 | 1.65 | 0.35 | −2.85 | 0.48 | 0.34 | 1.52 | 1.48 | 0.15 | 42.2 | 1.41 | > 400 °C | 1.436 | Immiscible | Immiscible | c (interaction parameter table, constant) ([4]; 100° C.): −2.99; l (dispersion forces) ([4]; 100° C.): 0.42; r (interaction via nonbonding and π-electrons) ([4]; 100° C.): 0.23; s (dipolarity/polarizability) ([4]; 100° C.): 1.49
4 | Cn1cc[n+](CCCCCCCCC[n+]2ccn(C)c2)c1.O=S(=O)([N-]S(=O)(=O)C(F)(F)F)C(F)(F)F.O=S(=O)([N-]S(=O)(=O)C(F)(F)F)C(F)(F)F [C9(mim)2-NTf2, 1,9-di(3-methylimidazolium)nonane di-bis[(trifluoromethyl)sulfonyl]imidate] | 1.83 | 0.47 | −2.86 | 0.62 | 0.16 | 1.81 | 1.75 | 0.20 | −2.95 | 0.51 | 0.11 | 1.76 | 1.50 | 0.15 | 43.1 | 1.47 | 350-360 °C | 1.442 | Immiscible | Immiscible | c (interaction parameter table, constant) ([4]; 100° C.): −3.06; l (dispersion forces) ([4]; 100° C.): 0.43; r (interaction via nonbonding and π-electrons) ([4]; 100° C.): 0.11; s (dipolarity/polarizability) ([4]; 100° C.): 1.64
5 | CCCC[N+]1(CCCCCCCCC[N+]2(CCCC)CCCC2)CCCC1.O=S(=O)([N-]S(=O)(=O)C(F)(F)F)C(F)(F)F.O=S(=O)([N-]S(=O)(=O)C(F)(F)F)C(F)(F)F [C9(bpy)2-NTf2, 1,9-di(butylpyrrolidinium)nonane di-bis[(trifluoromethyl)sulfonyl]imida] |  |  |  |  |  |  |  |  |  |  |  |  |  |  |  |  | 330 °C |  | Immiscible | Immiscible | 
6 | O=S(=O)([N-]S(=O)(=O)C(F)(F)F)C(F)(F)F.O=S(=O)([N-]S(=O)(=O)C(F)(F)F)C(F)(F)F.c1ccc(Cn2cc[n+](CCCCCCCCCCCC[n+]3ccn(Cc4ccccc4)c3)c2)cc1 [C12(benzim)2-NTf2, 1,12-di(3-benzylimidazolium)dodecane di-bis[(trifluoromethyl)sulfonyl]imidate] | 1.96 | 0.84 | −2.94 | 0.66 | 0.11 | 1.65 | 1.75 | 0.57 | −3.07 | 0.56 | 0.07 | 1.62 | 1.44 | 0.52 | 41.5 | 1.37 | 350-360 °C | 1.482 | Immiscible | Immiscible | c (interaction parameter table, constant) ([4]; 100° C.): −3.12; l (dispersion forces) ([4]; 100° C.): 0.46; r (interaction via nonbonding and π-electrons) ([4]; 100° C.): 0; s (dipolarity/polarizability) ([4]; 100° C.): 1.47
7 | Cn1cc[n+](CCCCCCCCCCCC[n+]2ccn(C)c2)c1.F[P-](F)(F)(F)(F)F.F[P-](F)(F)(F)(F)F [C12(mim)2-PF6, 1,12-di(3-methylimidazolium)dodecane di-hexafluorophosphate] |  |  |  |  |  |  |  |  |  |  |  |  |  |  | 53.4 | 1.36 |  | 1.436 | Immiscible | Immiscible | 
